Source: patent publication US9089561B2, “Methods for treating depression, neurodegeneration, inhibiting amyloid β deposition, delaying senescence, and extending life spans with heterocyclic compounds” (ZENYAKU KOGYO KABUSHIKI KAISHA, priority 2006, dated 2015)

Assays:
[1] = system: gerbil transient forebrain ischemia model; assay: delayed neuronal death in hippocampus CA1 region, gerbil transient forebrain ischemia model; format: in vivo; settings: four days after reperfusion
Experimental: Gerbils (male, weighing approximately 55 to 80 g) were pinched with an exposured bilateral common carotid artery by microclip to cause the cerebral ischemia under 2% halothane inhalation anesthesia. After four minutes of ischemia, the microclip was removed to reperfuse the cerebral ischemia and the anesthesia was stopped. Four days after the reperfusion, the brain was removed and formalin-fixed. Sections of 4 μm in thickness were prepared and stained with hematoxylin-eosin. Surviving cells in the entire hippocampus CA1 field on both sides of each specimen were counted using a micrometer under the microscope. The number of surviving cells per 0.5 mm was obtained.
Compound 24 was suspended in 1% HPC and orally given one hour before the cerebral ischemia and 5 hours after the reperfusion. Then, two doses per day were given from the following day to the third day since the perfusion. The surviving cell count in the hippocampus CA1 field was expressed by the average±standard error. The Mann-Whitney's U test was used to obtain significant differences. The effective oral dosage of Compound 24 was plotted as abscissa and the surviving cell count/0.5 mm was plotted as ordinate.

[2] = system: senescene accelerated mice (SAMP8); assay: amyloid β deposition in the hippocampus by amyloid β immunohistochemistry; format: in vivo; settings: 0.002, 0.01 and 0.1 mg/kg/day in drinking water for 2 months, vs tap water
Experimental: Senescene accelerated mice (SAMP8) (male, 8 months old at the beginning of the study) were used for experiment. […] Eight weeks after the dosing, the mouse brain was removed, Methacarn-fixed (methanol:chloroform: acetic acid=6:3:1), and paraffin-embedded. Then, sections of 8 μm in thickness were prepared using a microtome.
The sections were immunostained with streptavidin-biotin using a VECTASTATIN ABC kit. After one hour of incubation in 10% normal goat serum, the anti-amyloid β (Aβ) antibody was diluted with PBS to ten fold and incubated at 4° C. overnight. The following day, PBS rinsing, 1.5 hours of incubation with biotinylated anti-rabbit secondary antibody, PBS rinsing, and 1.5 hours of incubation with peroxidase-labeled streptavidin were conducted. The immunoreaction was visualized with DAB and specimens were prepared.
Immunoreactive Aβ-like granules in the hippocampus were counted under the microscope. The Aβ-like immunoreactive granule was observed as brown deposits in the hippocampus. The count was made for one section per individual.

[3] = system: senescene accelerated mice (SAMP8); assay: grading scores as aging indicator in senescene accelerated mice; format: in vivo
Experimental: (§1) Senescene accelerated mice (SAMP8) (male, 8 months old at the beginning of the study) were used in the study.
(§2) Compound 24 dissolved in tap water was given to the senescene accelerated mice at a dosage of 0.001, 0.01, or 0.1 mg/kg/day as drinking water. Tap water was given to the control mice as drinking water.
As an aging indicator of senescene accelerated mice, grading scores (Takeda et al., 1981) were measured after 0, 4, 8, 12, and 16 weeks of drinking water dosing in a short term study and after 12, 16, 20, 24, 28, and 32 weeks of drinking water dosing in a long term study.

[4] = system: senescene accelerated mice (SAMP8); assay: survival rate / average life span of senescene accelerated mice; format: in vivo; settings: 0.01 mg/kg/day in drinking water, vs control group given tap water, at any age in month
Experimental: as §1, §2
FIG. 6 is a graphical representation showing the influence of Compound 24 on the survival rate of senescene accelerated mice (SAMP8). The age in months of mice is plotted as abscissa and the survival rate (%) is plotted as ordinate.

[5] = preclinical study (safety)

O=C1N=C2C=CC=CN2C12Cc1ccccc1C2 [Compound 24, spiro[imidazo[1,2-a]pyridin-2(3H)-one-3,2′-indan]]
surviving cell count in the hippocampus CA1 field ([1]; 0.01 mg/kg oral, n=7, average±standard error): 27.8±1.9 /0.5 mm
surviving cell count in the hippocampus CA1 field ([1]; 0.1 mg/kg oral, n=8, average±standard error): 32.5±9.4 /0.5 mm
surviving cell count in the hippocampus CA1 field ([1]; 1 mg/kg oral, n=9, average±standard error): 44.3±9.4 /0.5 mm
number of amyloid β-immunoreactive granules in the hippocampus [2]: significantly (*) decreased
grading score vs control, long term study ([3]; 0.01 mg/kg/day in drinking water, Weeks 20 to 32): significant differences (*, **)
grading score vs control, long term study ([3]; 0.1 mg/kg/day in drinking water, Weeks 16 to 32): significant differences (*, **)
grading score vs control, short term study ([3]; Week 16, 0.001, 0.01 and 0.1 mg/kg/day in drinking water): Significant differences (*)
grading score (aging indicator), short term study ([3]; in drinking water, up to 16 weeks, score of water group increased after Week 12): did not increase
average life span (survival rate) [4]: average life span was extended
safety in a preclinical study [5]: highly safe
